Results: US4166911A, “Pyridazinyl-ergoline compounds having neuroleptic activity” (Farmitalia Carlo Erba S.p.A., priority 1977, dated 1979)

system: aggregated mice; test: not given; details: result in words, literature; cited from earlier work

In the case of `CN(C)CCCN1c2ccccc2Sc2ccc(Cl)cc21` [chlorpromazine], the “reduction of amphetamine toxicity in aggregated mice” value is listed as “clearly reduce the amphetamine toxicity in aggregated mice”.

system: aggregated mice; test: protection of aggregated mice from amphetamine toxicity (death rate after 24 hours); details: Mus musculus, ip

Going from `COC12C[C@@H](CNc3ccc(Cl)nn3)CN(C)[C@@H]1Cc1cn(C)c3cccc2c13` (stereo partly drawn) [355/902, 10-Methoxy-8β-(6'-chloro-3'-pyridazinylaminomethyl)-1,6-dimethyl-ergoline] to `COc1ccc(NC[C@H]2CN(C)[C@@H]3Cc4cn(C)c5cccc(c45)C3(OC)C2)nn1` (stereo partly drawn) [/903, 10-Methoxy-8β-(6'-methoxy-3'-pyridazinylaminomethyl)-1,6-dimethylergoline], the ED50 rises from 16.4 mg/kg to 30 mg/kg (1.8-fold).

`COC12C[C@@H](CNc3cccnn3)CN(C)[C@@H]1Cc1cn(C)c3cccc2c13` (stereo partly drawn) [/904, 10-Methoxy-8β-(3'-pyridazinylaminomethyl)-1,6-dimethylergoline] and `COC12C[C@@H](CSc3cccnn3)CN(C)[C@@H]1Cc1cn(C)c3cccc2c13` (stereo partly drawn) [/927, 10-Methoxy-1,6-dimethyl-8β-(3'-pyridazinylmercaptomethyl)ergoline] are the same in ED50: 30 mg/kg for the first, 30 mg/kg for the second.

`COC12C[C@@H](CSc3ccc(O)nn3)CN(C)[C@@H]1Cc1cn(C)c3cccc2c13` (stereo partly drawn) [/914, 10-Methoxy-1,6-dimethyl-8β-(6'-hydroxy-3'-pyridazinylmercaptomethyl)ergoline] gave an ED50 of 16.7 mg/kg.
